Measurements as given in ChEMBL document CHEMBL5620418.
Calls of active or inactive are those of the source. No cut-off for these calls is given here.

System: Mus musculus
Assay: Inhibition of morphine-induced intestinal propulsion function in mouse assessed as charcoal propulsion length at 10 mg/kg, ip by charcoal gavage and intestinal motility assays
Assay type: functional, organism-based

SMILES: COC(=O)/C=C/C(=O)N[C@@H]1CC[C@@]2(O)[C@H]3Cc4ccc(O)c5c4[C@@]2(CCN3CC2CC2)[C@H]1O5
- inhibition: Active
